Data taken from patent publication US8093209B2, “Methods of suppressing microglial activation and systemic inflammatory responses” (Cognosci, Incorporated, priority 2002, dated 2012).
Entries after “also recorded” stand apart in the source; their conditions may differ.

Experiments:
[1] = tested on: thioglycollate-elicited peritoneal macrophages; test: [Ca2+]i in Fura-2/AM treated single macrophages, digital imaging microscopy (Example 10); format: cell-based, mouse; settings: for increase in [Ca2+]i levels compared to buffer: macrophage
Method: (§1) Macrophage Harvesting. All experiments involving animals were first approved by the Duke Institutional Animal Care and Use Committee. Pathogen-free female C57BL/6 mice and ApoE deficient mice previously backcrossed 10 times to the C57BL/6 strain were obtained from the Jackson Laboratory (Bar Harbor, Me.). Thioglycollate-elicited peritoneal macrophages were harvested by peritoneal lavage using 10 ml of ice-cold Hanks' balanced salt solution containing 10 mM HEPES and 3.5 mM NaHCO3 (HHBSS), pH 7.4. The macrophages were pelleted by centrifugation at 4° C. at ˜800×g for 10 min and resuspended in RPMI 1640 media supplemented with 25 mM HEPES, 12.5 U/ml penicillin, 6.5 mg/ml streptomycin, and 5% fetal bovine serum.
Measurement of [Ca^2+]i in apoE and peptide treated macrophage. Changes in [Ca^2+]i levels in Fura-2/AM treated single cells were quantified using digital imaging microscopy in accordance with known techniques. Macrophages were plated on glass coverslips sitting in 35 mm Petri dishes at a density of 1.5×10^5 cells/cm^2, and allowed to adhere for 2 h in a humidified 5% CO2 incubator at 37° C. The non-adherent cells were aspirated and the monolayers were washed twice with HHBSS. 4 μM Fura-2/AM was incubated with the cells for thirty min in the dark at room temperature and [Ca^2+]i was subsequently measured using a digital imaging microscope in accordance with known techniques. […] To determine if signaling resulted from ligation of the ligand to LRP, cells were preincubated with a 1000-fold molar excess of RAP or 10 mM NiCl2, both of which inhibit ligand binding to LRP, for 5 min prior to stimulation with apoE or peptide. In experiments in which the involvement of a G protein was assessed, monolayers were incubated with 1 μg/ml pertussis toxin for 12 h at 37° C. and Ca^2+ measurements were made as stated above.

[2] = tested on: thioglycollate-elicited peritoneal macrophages; test: IP3 formation in myo-[2-3H]inositol-labeled macrophages (Example 10); format: cell-based, mouse
Method: as §1, with “serum. Cell viability was determined by the trypan blue exclusion method and was consistently greater then 95%.” for “serum.”
Measurement of IP3 in apoE treated macrophage and effect of pertussis toxin. The formation of IP3 in myo-[2-^3H]inositol-labeled macrophages under various experimental conditions was quantified in accordance with known techniques. Macrophage were plated in 6 well plates (4×10^6 cells/well) and allowed to adhere at 37° C. for 2 h in a humidified 5% CO2 incubator. Medium was aspirated from the monolayers and RPMI 1640 medium containing 0.25% BSA and myo-[2-^3H]inositol (specific activity 10-20 Ci/mmol) was added to each well. […] Radioactivity was determined by placing aliquots in a liquid scintillation counter to determine radioactivity. […] The effect on IP3 formation was measured as described above.

[3] = tested on: thioglycollate-elicited peritoneal macrophages; test: Competition between apoE and apoE mimetic peptide: [Ca2+]i on sequential stimulation; format: cell-based, mouse
Method: Fura-2/AM loaded macrophages were incubated overnight, plated on glass cover slips, stimulated with one ligand, and changes in [Ca^2+]i quantified. Cells were then stimulated with second ligand and Ca^2+ measurements repeated.

[4] = tested on: primary rat neuronal/glial cultures exposed to NMDA; test: NMDA-induced 45Ca uptake by primary neuronal-glial cultures; format: cell-based; settings: 6 μM peptide, 100 μM NMDA
Method: (§2) Primary neuronal-glial cultures were prepared from fetal Sprague-Dawley rat brains at 18 days of gestation as previously described (Pearlstein et al., 1998). Brains were harvested from 10-15 pups and dissected to separate cortex from meninges and subcortical structures using anatomical landmarks. Cortices were pooled and minced into 2 mm^3 pieces in a buffered salt solution supplemented with 20 mM HEPES buffer, pH 7.4, containing 0.25% trypsin. The tissue was incubated for 20 minutes at 37° C. in a 5% CO2/95% room air atmosphere, and washed twice with ice-cold, glutamine-free minimum essential medium (MEM; Life Technologies) containing 15 mM glucose, 5% fetal bovine serum (GIBCO), 5% horse serum (GIBCO), and 1% DNase-I (Sigma Chemical Co., St. Louis, Mo., USA). Tissue pieces were dissociated by trituration through a fire-polished 9-inch Pasteur pipette (I.D.=0.7 mm). The resultant suspension was centrifuged at 50×g for 10 min, the supernatant discarded, and the pellet resuspended in growth medium (MEM supplemented with 15 mM glucose, 5% fetal bovine serum, and 5% horse serum). The dissociated cells were plated to achieve a confluent monolayer using 4×10^5 cells per well in poly-D-lysine coated, 24-well culture plates (Falcon 3047; Becton Dickinson Co., Lincoln Park, N.J., USA). Cultures were maintained undisturbed at 37° C. in a humidified 5% CO2/95% room air atmosphere for 13-16 days prior to use.
Cellular calcium uptake from the extracellular space was assessed using ^45CaCl2 (American Radiolabeled Chemicals, St. Louis, Mo.). After washing the cultures with Mg^2+-free BSS containing 20 mM HEPES buffer, 6 μM peptide or 10 μM MK-801 was added to each well prior to and removed at the end of 100 μM NMDA exposure. ^45Ca (0.28 μCi/ml, 0.9 μCi/well) was added to each well immediately prior to NMDA exposure. The cultures were returned to the incubator and maintained at 37° C. Twenty minutes later, the exposure medium was removed and each well was washed 3 times with ice-cold Mg^2+-free BSS containing 20 mM HEPES buffer. The cells were subsequently lysed by addition of 0.2% sodium dodecyl sulfate (SDS). An aliquot from each well was added to a liquid scintillation vial containing 10 ml Cytoscint™ (ICN, Biochemical Research Product, CA) and radioactivity was determined by scintillation counting and normalized to cell count.

[5] = tested on: primary rat neuronal/glial cultures exposed to NMDA; test: NMDA-induced LDH release in primary neuronal-glial cultures; format: cell-based; settings: peptide 0.3-10 μM, 100 μM NMDA
Method: as §2
Mature cultures (13-16 days in vitro) were washed with Mg^2+-free buffered salt solution (BSS) containing 20 mM HEPES buffer (pH7.4) and 1.8 mM CaCl2, prior to the addition of NMDA. Following NMDA exposure, cultures were maintained for 30 minutes at 37° C. in a 5% CO2/95% air atmosphere. The medium containing NMDA was then removed and replaced with MEM supplemented with 20 mM glucose. The cultures were returned to the incubator for 24 h. In all experiments, cellular damage was assessed at 24 h after exposure to NMDA by measurement of the activity of lactate dehydrogenase (LDH) released into the medium as described below. The non-competitive NMDA receptor antagonist, MK-801 (Tocris Cookson Ins., St. Louis, Mo.) at a concentration of 10 μM was used as a positive control. Preliminary dose-response studies were performed to determine the concentration of NMDA (100 μM) required to effect a near-maximal LDH release (ED90) as used in the present study.
The effect of human recombinant apoE (Panverra, Madison, Wis.) on 100 μM NMDA-induced LDH release was assessed and the dose-response curve was obtained (apoE: 0.1-10 μM final concentration). ApoE3, the most common human isoform, was added to the cultures 30 minutes prior to and removed following NMDA exposure. The effect of apoE peptide (133-149) on NMDA (100 μM or 300 μM)-induced LDH release was next assessed and the dose-response curve was obtained in a separate set of sister cultures that were simultaneously treated under one of the following conditions: (1) various doses of peptide (0.3 μM, 1 μM, 3 μM, 6 μM, 10 μM final concentration) were added to the culture immediately prior to and removed at the end of NMDA exposure; (2) no peptide, NMDA exposure; (3) no peptide, no NMDA exposure; (4) no peptide, NMDA exposure with 10 μM MK-801 for 30 minutes. The effect of a scrambled control peptide on NMDA-induced LDH release was similarly assessed.
The effect of time of administration of apoE peptide (133-149) on NMDA-induced LDH release was assessed in a separate set of sister cultures that were simultaneously treated under one of following conditions: (1) peptide was added to the culture medium 24 h prior to and removed immediately before exposure to NMDA; (2) peptide was added immediately prior to and removed at the end of the NMDA exposure; (3) peptide was added immediately following the 30 minutes NMDA exposure; (4) no peptide, NMDA exposure; (5) no peptide, no NMDA exposure. […]

apoE: Example 10: human recombinant apoE2 obtained commercially from Panvera Corp
cells examined showing increase in [Ca2+]i [1]: 70-80% | concentration dependence of [Ca2+]i increase [1]: dose-dependent | increase in [Ca2+]i levels compared to buffer [1]: 2-4 fold | [Ca2+]i level in treated cells, typical experiment ([1]; unstimulated cells 95.33±7.37 nM): 180.25 ± 14.57 nM | increase in IP3 levels [2]: 1.5-2.0 fold | concentration dependence of IP3 increase ([2]; stimulated 60 s): dose-dependent | [Ca2+]i response on repeated or sequential ligand exposure (desensitization) [3]: marked attenuation in [Ca^2+]i suggesting tachyphylaxis; also recorded: loss of [Ca^2+]i response to apoE addition following initial exposure to peptide

scrambled control peptide: Example 10: scrambled control of identical size and amino acid composition to the 20 amino acid ApoE mimetic peptide (Ac-LARKLRSRLVHLRLKLR-NH2) [reference compound]
NMDA-induced calcium influx compared to NMDA alone [4]: no effect on calcium influx | increase in [Ca2+]i levels compared to buffer [1]: no effect | protection against NMDA toxicity (LDH release), dose response [5]: no protection was observed | [Ca2+]i response on repeated or sequential ligand exposure (desensitization) [3]: No desensitization in calcium response
